Laboratory results as given in patent US20200276258A1, “PHARMACEUTICAL COMPOSITION FOR CONTROLLING BLOOD SUGAR” (BEIJING HEBABIZ BIOTECHNOLOGY CO., Inc., priority 2017, published 2020).
Counter-ions that a name gives are not always drawn.

Experiments:
[1] = system: type 2 diabetes rat model (high-fat and high-sugar feed + streptozotocin); assay: Combined drug use experiment (HH003B with Empagliflozin): HbA1c in rat model; type: in vivo, Wistar rats; conditions: model rats
Text: Wistar rats were bred adaptively for 1 week. The subjects were randomly divided into the normal Control group (10) and the modeling group (60) according to their body weight from the second week. The normal Control group (Control) was fed with basic feed, and the model group was fed with high-fat and high-sugar feed. […] On the 9th weekend, rats fasted overnight, measured FBG and insulin levels, and calculated the insulin index (ISI). The model would be successfully established if the fasting blood glucose (>) was 11.1 mmol/L and the ISI was decreased. The successfully modeled rats were randomly divided into Model group, Metformin hydrochloride group, HH003 group, and HH003B group, with 10 rats in each group. […] Fasting but gave water after the last dose, and then weighted the rats after 12 hours. Detected the content of fasting insulin (Insulin), separated the serum, detected the high-density lipoprotein (HDL), free fatty acid (FFA) and glycosylated hemoglobin (GHB). […] Empagliflozin group was given by gavage 1 mg/kg once a day. […] HbA1c was determined at the end of the experiment.

[2] = system: type 2 diabetes rat model (high-fat and high-sugar feed + streptozotocin); assay: Pharmacodynamic experiment: biochemical indexes of rat model after 4 weeks of administration; type: in vivo, Wistar rats; conditions: model rats
Text: Wistar rats were bred adaptively for 1 week. The subjects were randomly divided into the normal Control group (10) and the modeling group (60) according to their body weight from the second week. The normal Control group (Control) was fed with basic feed, and the model group was fed with high-fat and high-sugar feed. […] On the 9th weekend, rats fasted overnight, measured FBG and insulin levels, and calculated the insulin index (ISI). The model would be successfully established if the fasting blood glucose (>) was 11.1 mmol/L and the ISI was decreased. The successfully modeled rats were randomly divided into Model group, Metformin hydrochloride group, HH003 group, and HH003B group, with 10 rats in each group. […] Fasting but gave water after the last dose, and then weighted the rats after 12 hours. Detected the content of fasting insulin (Insulin), separated the serum, detected the high-density lipoprotein (HDL), free fatty acid (FFA) and glycosylated hemoglobin (GHB).

[3] = 4 weeks, metformin hydrochloride 200 mg/kg daily gavage, HH003/HH003B 30% of feed (about 13 g/d/kg)

Structure (SMILES)	HbA1c (glycosylated hemoglobin) ([1]; 4 weeks, Empagliflozin 1 mg/kg gavage once a day, HH003B 15% of feed (about 7 g/d/kg), combination both) [mg/dL]	effect on glycosylated hemoglobin, in words ([1]; Empagliflozin 1 mg/kg, HH003B reduced dose (15% of feed))	effect on HDL level, in words ([2]; 4 weeks of administration)	effect on glycosylated hemoglobin GHB level, in words ([2]; 4 weeks of administration, versus Model and Control groups)	effect on the disease condition of type 2 diabetes, in words ([2]; 4 weeks, HH003/HH003B 30% of feed, metformin hydrochloride 200 mg/kg)	FFA (free fatty acid), serum [2, 3] [mmol/L]	GHB (glycosylated hemoglobin) [2, 3] [mmol/L]	HDL (high-density lipoprotein), serum [2, 3] [mmol/L]	Insulin (fasting insulin) ([2]; 4 weeks, metformin hydrochloride 200 mg/kg daily gavage, HH003/HH003B 30% of feed (about 13 g/d/kg), 12 h fasting, mean ± spread) [uIU/ml]
OC[C@H]1O[C@@H](c2ccc(Cl)c(Cc3ccc(O[C@H]4CCOC4)cc3)c2)[C@H](O)[C@@H](O)[C@@H]1O [Empagliflozin]	7.01 ± 0.17	no effect							
CN(C)C(=N)N=C(N)N [Metformin, metformin hydrochloride]			significantly increase HDL level	significantly reduce the GHB level of the rats but still significantly higher than that of the normal rats	only improve the disease condition of type 2 diabetes to a certain extent	0.56 ± 0.03	15.07 ± 0.85	0.74 ± 0.15	31.15 ± 6.28
